US8791132B2, “Compounds and methods for treatment of hypertension” (Medivation Technologies, Inc., priority 2011, dated 2014)
Values joined by “and” are separate entries in the source; they are usually repeats but may differ in a detail not shown here. Equal values may be shown once.

Tests used:
[1] = target: T1, rat adrenergic α1B receptor (Rattus norvegicus, UniProt P15823); assay: Radioligand binding, adrenergic α1B ([3H]Prazosin); settings: [3H]Prazosin, repeat datapoints each shown; for Percentage inhibition of ligand binding, Adrenergic α1B (0.1 μM): compound at 0.1 μM
T1 construct: rat adrenergic α1B receptor obtained from Wistar Rat liver; from tissue; host or cells: Wistar rat liver
T1 sequence (P15823 1-515): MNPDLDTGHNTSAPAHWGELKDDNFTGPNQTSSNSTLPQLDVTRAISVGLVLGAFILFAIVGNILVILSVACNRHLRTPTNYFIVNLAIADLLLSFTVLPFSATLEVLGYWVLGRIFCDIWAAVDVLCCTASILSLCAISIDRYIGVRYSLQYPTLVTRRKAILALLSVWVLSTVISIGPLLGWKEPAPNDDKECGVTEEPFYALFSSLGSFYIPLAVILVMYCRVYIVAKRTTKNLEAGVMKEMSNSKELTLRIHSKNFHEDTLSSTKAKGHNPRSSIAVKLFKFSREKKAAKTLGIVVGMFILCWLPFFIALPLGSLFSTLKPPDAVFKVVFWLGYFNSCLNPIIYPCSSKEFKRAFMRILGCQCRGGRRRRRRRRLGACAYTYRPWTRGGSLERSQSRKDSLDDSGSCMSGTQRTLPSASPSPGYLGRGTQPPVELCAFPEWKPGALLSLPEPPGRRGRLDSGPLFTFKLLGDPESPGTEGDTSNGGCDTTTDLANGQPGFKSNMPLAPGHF
In short: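 Rat α1B receptor from Wistar rat liver was incubated with 0.25 nM [3H]prazosin for 60 min at 25 °C in 50 mM Tris-HCl, pH 7.4, 0.5 mM EDTA. Non-specific binding was defined with 10 μM phentolamine. Bound radioligand was measured by filtration and counting, reported as percent inhibition of specific binding.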

[2] = target: T2, human recombinant adrenergic α2B receptor (Homo sapiens, UniProt P18089); assay: Radioligand binding, adrenergic α2B ([3H]Rauwolscine); settings: for Percentage inhibition of ligand binding, Adrenergic α2B (0.03 μM): compound at 0.03 μM; for Percentage inhibition of ligand binding, Adrenergic α2B (0.03 μM) / inhibition at 0.03 µM: [3H]Rauwolscine, repeat datapoints each shown; for inhibition at 0.03 µM: read-out: Percentage inhibition of ligand binding, Adrenergic α2B (0.03 μM), compound at 0.03 μM
T2 construct: expressed in transfected cells; host or cells: CHO-K1
T2 sequence (P18089 1-450): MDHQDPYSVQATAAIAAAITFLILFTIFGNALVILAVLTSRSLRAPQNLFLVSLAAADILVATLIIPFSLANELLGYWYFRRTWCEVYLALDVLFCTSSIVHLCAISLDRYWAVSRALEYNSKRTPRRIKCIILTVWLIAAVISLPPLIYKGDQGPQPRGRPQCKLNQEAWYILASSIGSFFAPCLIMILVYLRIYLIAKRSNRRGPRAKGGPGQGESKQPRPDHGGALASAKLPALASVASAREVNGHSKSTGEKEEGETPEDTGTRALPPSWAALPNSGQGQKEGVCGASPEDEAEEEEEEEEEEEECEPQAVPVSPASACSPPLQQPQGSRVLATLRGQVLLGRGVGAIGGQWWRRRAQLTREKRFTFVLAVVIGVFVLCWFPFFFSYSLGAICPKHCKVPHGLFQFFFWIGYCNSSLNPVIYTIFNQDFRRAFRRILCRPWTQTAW
In short: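 Assay used CHO-K1-expressed human α2B receptor in Tris-HCl pH 7.4 buffer with MgCl2, EDTA and BSA; 60 min incubation at 25 °C.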

[3] = target: T3, human recombinant adrenergic α2A receptor (Homo sapiens, UniProt P08913); assay: Radioligand binding, adrenergic α2A ([3H]MK-912); settings: compound at 0.1 μM; [3H]MK-912; repeat datapoints each shown; 0.1 µM
T3 construct: expressed in transfected cells; host or cells: insect Sf9 cells
T3 sequence (P08913 1-465): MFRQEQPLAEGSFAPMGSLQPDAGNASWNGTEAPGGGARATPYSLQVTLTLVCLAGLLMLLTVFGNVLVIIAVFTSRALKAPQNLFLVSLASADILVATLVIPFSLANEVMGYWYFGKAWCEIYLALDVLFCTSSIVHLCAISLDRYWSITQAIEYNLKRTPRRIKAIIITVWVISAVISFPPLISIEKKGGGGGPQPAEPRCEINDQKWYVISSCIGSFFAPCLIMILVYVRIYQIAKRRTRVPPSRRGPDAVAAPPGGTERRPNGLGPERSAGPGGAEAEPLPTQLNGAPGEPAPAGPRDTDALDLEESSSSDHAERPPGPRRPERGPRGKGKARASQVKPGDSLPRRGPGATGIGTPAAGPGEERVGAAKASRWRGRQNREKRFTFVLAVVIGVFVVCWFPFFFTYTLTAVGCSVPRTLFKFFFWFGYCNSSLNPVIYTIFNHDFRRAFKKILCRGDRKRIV
In short: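 Receptor expressed in Sf9 cells, in 50 mM Tris-HCl pH 7.4, 12.5 mM MgCl2, 2 mM EDTA; compounds incubated with 1 nM [3H]MK-912 for 60 min at 25 °C.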

SMILES	Percentage inhibition of ligand binding, Adrenergic α1B (0.1 μM) [1]	Percentage inhibition of ligand binding, Adrenergic α2B (0.03 μM) [2]	Percentage inhibition of ligand binding, Adrenergic α2A (0.1 μM) [3] [%]	inhibition at 0.03 µM [2] [%]	inhibition at 0.03 µM ([1]; read-out: Percentage inhibition of ligand binding, Adrenergic α1B (0.03 μM), compound at 0.03 μM) [%]	Ki ([2]; read-out: Ki α2B) [nM]	inhibition at 0.1 µM ([1]; read-out: Percentage inhibition of ligand binding, Adrenergic α1B (0.1 μM), compound at 0.1 μM) [%]
Cc1cnc2c(c1)c1c(n2CCc2ccncc2)CCN2CCCC12 (single isomer, unassigned) [II-244a, 9-methyl-6-(2-pyridin-4-yl-ethyl)-2,3,4,5,6,10c-hexahydro-1H-3a,6,7-triaza-cyclopenta[c]fluorene]	95%	102%	22	–	–	–	–
Cc1cnc2c(c1)c1c(n2CCc2ccncc2)CCN2CCCC12 (single isomer, unassigned) [II-244b, 9-methyl-6-(2-pyridin-4-yl-ethyl)-2,3,4,5,6,10c-hexahydro-1H-3a,6,7-triaza-cyclopenta[c]fluorene]	12%	16%	2	–	–	–	–
Cc1cnc2c(c1)c1c(n2CCc2ccc(C)nc2)CCN2CCCCC12 (single isomer, unassigned) [IV-8a]	49%	–	7	4	–	–	–
Cc1cnc2c(c1)c1c(n2CCc2ccc(C)nc2)CCN2CCCCC12 (single isomer, unassigned) [IV-8b]	5%	3%	22	–	–	–	–
Cc1cnc2c(c1)c1c(n2CCc2cnc(C)nc2)CCN2CCCC12 (single isomer, unassigned) [IV-93a]	7%	–	18	52	–	–	–
Cc1cnc2c(c1)c1c(n2CCc2cnc(C)nc2)CCN2CCCC12 (single isomer, unassigned) [IV-93b]	65%	44%	−1	–	–	–	–
Cc1cnc2c(c1)c1c(n2CC(O)c2ccncc2)CCN2CCCC12 (single isomer, unassigned) [IV-209a, 2-(9-Methyl-1,2,3,4,5,10c-hexahydro-3a,6,7-triaza-cyclopenta[c]fluoren-6-yl)-1-pyridin-4-yl-ethanol]	89%	72%	6	–	–	–	–
Cc1cnc2c(c1)c1c(n2CC(O)c2ccncc2)CCN2CCCC12 (single isomer, unassigned) [IV-209b, 2-(9-Methyl-1,2,3,4,5,10c-hexahydro-3a,6,7-triaza-cyclopenta[c]fluoren-6-yl)-1-pyridin-4-yl-ethanol]	11%	13%	10	–	–	–	–
Cc1cnc2c(c1)c1c(n2CC(O)c2ccncc2)CCN2CCCC12 (single isomer, unassigned) [IV-209c, 2-(9-Methyl-1,2,3,4,5,10c-hexahydro-3a,6,7-triaza-cyclopenta[c]fluoren-6-yl)-1-pyridin-4-yl-ethanol]	98%	102%	59	–	–	–	–
Cc1cnc2c(c1)c1c(n2CC(O)c2ccncc2)CCN2CCCC12 (single isomer, unassigned) [IV-209d, 2-(9-Methyl-1,2,3,4,5,10c-hexahydro-3a,6,7-triaza-cyclopenta[c]fluoren-6-yl)-1-pyridin-4-yl-ethanol]	54%	79%	8	–	–	–	–
CC(O)(Cn1c2c(c3cc(Cl)cnc31)C1CCCN1CC2)c1cccnc1 (single isomer, unassigned) [IV-210a]	70% and 75%	101% and 103%	37	–	43	0.33	–
CC(O)(Cn1c2c(c3cc(Cl)cnc31)C1CCCN1CC2)c1cccnc1 (single isomer, unassigned) [IV-210b]	10%	29%	8	–	–	–	–
CC(O)(Cn1c2c(c3cc(Cl)cnc31)C1CCCN1CC2)c1cccnc1 (single isomer, unassigned) [IV-210c]	−4%	10%	1	–	–	–	–
CC(O)(Cn1c2c(c3cc(Cl)cnc31)C1CCCN1CC2)c1cccnc1 (single isomer, unassigned) [IV-210d]	19%	87%	13	–	–	–	–
Cc1ccc2c(c1)c1c(n2CC(C)(OCC(=O)O)c2cccnc2)CCN(C)C1 (single isomer, unassigned) [V-14a, 2-((1-(2,8-dimethyl-3,4-dihydro-1H-pyrido[4,3-b]indol-5(2H)-yl)-2-(pyridin-3-yl)propan-2-yl)oxy)acetic acid]	0%	7%	18	–	–	–	–
Cc1ccc2c(c1)c1c(n2CC(C)(OCC(=O)O)c2cccnc2)CCN(C)C1 (single isomer, unassigned) [V-14b, 2-((1-(2,8-dimethyl-3,4-dihydro-1H-pyrido[4,3-b]indol-5(2H)-yl)-2-(pyridin-3-yl)propan-2-yl)oxy)acetic acid]	2%	0%	3	–	–	–	–
Cc1ccc2c(c1)c1c(n2CC(OC(=O)CCC(=O)O)c2ccncc2)CCN2CCCC12 (single isomer, unassigned) [V-18a, 4-(2-(10-methyl-2,3,5,6-tetrahydro-1H-indolizino[7,8-b]indol-7(11cH)-yl)-1-(pyridin-4-yl)ethoxy)-4-oxobutanoic acid]	–	57%	13	–	–	–	78
Cc1ccc2c(c1)c1c(n2CC(OC(=O)CCC(=O)O)c2ccncc2)CCN2CCCC12 (single isomer, unassigned) [V-18b, 4-(2-(10-methyl-2,3,5,6-tetrahydro-1H-indolizino[7,8-b]indol-7(11cH)-yl)-1-(pyridin-4-yl)ethoxy)-4-oxobutanoic acid]	95%	98%	57	–	–	–	–
